Measurements reported in patent US20250115571A1, “OXOPIPERAZINE DERIVATIVES” (Inthera Bioscience AG, priority 2017, published 2025).

Assays:
[1] = test system: MKN45 human gastric adenocarcinoma cells; assay: Cell-derived xenograft mouse model for gastric cancer (MKN45 CDX); format: in vivo; settings: p.o.; for Tumor Size day 29: MKN45 CDX, female BALB/c nude mice, Mean ± SEM; for T/C: day 29, tumor-to-control ratio (volume/volume)
Procedure: Female BALB/c nude mice (8-9 weeks of age) were injected with MKN45 human gastric adenocarcinoma cells. The cells were inoculated subcutaneously into the left flank of 48 mice. When tumors reached a mean volume of approximately 103 mm^3, mice were randomly assigned to eight treatment groups of each six mice (TABLE 16). Body weights were measured three times weekly prior to the initiation of dosing and daily thereafter. Tumor burden was assessed by caliper measurement twice weekly. Dosing breaks were applied when tolerability issues arose (body weight loss>10%). The study was terminated four weeks post first dosing. The experiment was performed in the Crown Bioscience Ltd. (Beijing) testing facility (Ground Floor, Light Muller Building, Changping Sector of Zhongguancun Scientific Park, No. 21 Huoju Road, Changping District, Beijing, CHN).

[2] = test system: CaSki; assay: 9-day colony survival assay (CFA); format: cell-based; settings: Homo sapiens, Ca-Ski, 216 h, CaSki (cervix), read-out: GI50 (50% growth inhibition)
Description: Cell culture. CaSki cells (cervical cancer) were obtained from CLS GmbH, Eppelheim, Germany (cat #300145) and subcultured in ready-to-use RPMI1640 Media (CLS #820700) after addition of “Antibiotic Antimycotic Solution” (Sigma-Aldrich, St Louis, USA) at 1:100 dilution. The cells were expanded, and aliquots kept frozen in liquid nitrogen according to manufacturer's instructions; tested for mycoplasma contamination and genotyped (Microsynth AG, Balgach, Switzerland). Once thawed, aliquots were passaged every second or third day at a seed density of 20′000 cells/cm^2; and used for a maximum of twenty passages. For passaging, cell culture flasks were rinsed twice with Ca++/Mg++-free Phosphate-Buffered Saline (DPBS, CLS #860015) and incubated with Accutase (CLS #830100) for 15 min at 37° C. Cells were resuspended in a four-fold volume of ready-to-use RPMI, centrifuged at 300 g for ten minutes, the supernatant discarded and the cells resuspended in ready-to-use RPMI1640 by pipetting up and down five times with a serological pipette. Cell density was determined with a Via-1 Cassette (Chemometec, Allerod, Denmark) on a Nucleocounter NC 3000 (Chemometec). Where not stated, consumables and chemicals were purchased from well-known suppliers.
Preparation of the cells for CFA. Cell culture flasks were rinsed twice with DPBS and incubated with Accutase for 15 min at 37° C. Cells were resuspended in a four-fold volume of ready-to use RPMI, centrifuged at 300 g for ten minutes, the supernatant discarded and the cells resuspended in ready-to-use RPMI1640 by pipetting up and down ten times with a serological pipette. Cell density was determined with a Via-1 Cassette on a Nucleocounter NC 3000. The required amount of cells was first diluted 1:10 in ready-to-use RPMI; cells pipetted five times up-down with a serological pipette; and the 1:10 solution added to the final volume needed for the whole assay setup. Cells were mixed again by pipetting up and down twenty times with a serological pipette. The cell density used for the experiment was of 140 cells/ml.
Seeding. Cells were seeded row-wise in 12-well plates, while triplicates were treated column-wise (i.e. all the first rows were seeded first, then the second rows, and finally the third rows). One and a half ml cell suspension solution (a total of 210 cells) were added per well.
Treatment. Compound stock solutions were prepared at a concentration of 30 mM in 50% DMSO/50% water; and diluted in the same solution so that the volume added to the wells was of 2.5 μl and the final DMSO well concentration of 0.08%. Untreated cells (negative controls) were incubated in a) medium only; and b) 0.08% DMSO. […] The plates were swirled gently after addition of the compounds and the cells incubated for nine days at 37° C. Culture incubation solutions were replaced after five days.
Staining. Colonies were washed twice with ice-cold DPBS and fixed on ice with 1 ml ice-cold 10% methanol solution for 30 min. The methanol solution was removed and colonies incubated with 0.1% Crystal Violet/DBPS for 20 min at room temperature. The wells were rinsed consecutively with 1.5, 1, and 0.5 ml water at room temperature and let dry.
Destaining and data evaluation. […] Absorbance was measured at 600 nm with a SpectraMax M2e reader (Molecular Devices, Sunnyvale, CA, USA). Percentage of colony formation was calculated from the average of the well triplicates compared to the untreated DMSO controls after subtraction of blank values. […]

[3] = test system: patient-derived castration-resistant prostate tumor cells (model #PR6511); assay: Castration resistant prostate cancer patient-derived xenograft (CRPC PDX); format: in vivo, mouse; settings: for CR (complete regression) = number of mice / PR (partial regression) = number of mice / TFS (Tumor Free Survival) = number of complete regressions recorded up to Group Day End: groups of eight mice
Procedure: NSG NOD.Cg-PrkdcscidIj2rgtm1Wjl/SzJ mice (6-8 weeks of age) were injected with patient-derived castration-resistant prostate tumor cells (model #PR6511, Crown Bioscience UK Ltd Hillcrest, Osgathorpe Leicestershire, UK). The cells were inoculated subcutaneously into the left flank of 40 male NSG mice. When tumors reached a mean volume of approximately 100 mm^3 (i.e. 100 mm^3+/−54 mm^3, FIG. 3), mice were randomly assigned to five treatment groups of each eight mice (TABLE 9). Body weights were measured three times weekly prior to the initiation of dosing and daily thereafter. Tumor burden was assessed by caliper measurement three times weekly. Dosing breaks were applied when tolerability issues arose (body weight loss>10). Upon completion of the scheduled dosing phase at day 57, tumor outgrowth was monitored for groups 3, 4 and […] up to study day 77. Groups 1 and 2 were terminated on study day 57. Results of the experiment are shown in TABLES 10 and 11; and FIGS. 3 and 4. The experiment was performed in the Crown Bioscience Ltd. testing facility (Crown Bioscience UK Ltd Hillcrest, Dodgeford Lane, Osgathorpe Leicestershire LE12 9TE, UK).

[4] = 6 mg/kg p.o. QD, n.s. = not significant
[5] = p.o. QD, 10 mg/kg, 3 mg/kg from day 51 on

Row | SMILES | Tumor Size day 29 ([1]; 3 mg/kg, QD) [mm^3] | T/C ([1]; 3 mg/kg, QD) [%] | Tumor Size day 29 ([1]; 6 mg/kg, QD) [mm^3] | T/C ([1]; 6 mg/kg, QD) [%] | GI50 [2] [nM] | TWO-WAY ANOVA p (tumor size at the end of the study) vs. Compound 258 6 mg/kg [3, 4] | TWO-WAY ANOVA p (tumor size at the end of the study) vs. Compound 258 10 mg/kg [3, 4] | TWO-WAY ANOVA p (tumor size at the end of the study) vs. Enzalutamide ([3]; 6 mg/kg, p.o. QD) | TWO-WAY ANOVA p (tumor size at the end of the study) vs. Vehicle ([3]; 6 mg/kg, p.o. QD) | CR (complete regression) = number of mice ([3]; p.o. QD, 6 mg/kg) | PR (partial regression) = number of mice ([3]; p.o. QD, 6 mg/kg) | TFS (Tumor Free Survival) = number of complete regressions recorded up to Group Day End ([3]; p.o. QD, 6 mg/kg) | Tumor Size day 29 ([1]; 20 mg/kg, BIW) [mm^3] | T/C ([1]; 20 mg/kg, BIW) [%] | TWO-WAY ANOVA p (tumor size at the end of the study) vs. Enzalutamide ([3]; 10 mg/kg p.o. QD) | TWO-WAY ANOVA p (tumor size at the end of the study) vs. Vehicle ([3]; 10 mg/kg p.o. QD) | CR (complete regression) = number of mice [3, 5] | PR (partial regression) = number of mice [3, 5] | TFS (Tumor Free Survival) = number of complete regressions recorded up to Group Day End [3, 5]
1 | CC(C)C[C@@H]1NCCN([C@@H](CC(C)C)C(=O)N2CCC3(C[C@@H]2C)OCC(CN2CCC2)CO3)C1=O (stereo partly drawn) [Compound 284, (3S)-1-[(2S)-4-methyl-1-oxo-1-[(3s,6s,8S)-3-(azetidin-1-ylmethyl)-8-methyl-1,5-dioxa-9-azaspiro[5.5]undec-an-9-yl]pentan-2-yl]-3-(2-methylpropyl)piper-azin-2-one (^≠), isomer Z] | 709.0 ± 55.6 | 59.6 | 592.6 ± 109.7 | 49.8 | 6 | n.s. | n.s. | p < 0.0001 | p < 0.0001 | 3 | 2 | 3 |  |  |  |  |  |  | 
2 | CC(C)C[C@@H]1NCCN([C@@H](CC(C)C)C(=O)N2CCC3(C[C@@H]2C)OCC(CN2CCC4(CC2)CC4)CO3)C1=O (stereo partly drawn) [Compound 279, (3S)-1-[(2S)-4-methyl-1-oxo-1-[(3s,6s,8S)-3-{6-azaspiro[2.5]octan-6-ylmethyl}-8-methyl-1,5-dioxa-9-azaspiro[5.5]undec-an-9-yl]pentan-2-yl]-3-(2-methylpropyl)piper-azin-2-one (^≠), isomer Z] |  |  |  |  | 4 |  |  |  |  |  |  |  |  |  |  |  |  |  | 
3 | CC(C)C[C@@H]1NCCN([C@@H](CC(C)C)C(=O)N2CCC3(C[C@@H]2C)OCC(CN2CCCC2)CO3)C1=O (stereo partly drawn) [Compound 258, (3S)-1-[(2S)-4-methyl-1-oxo-1-[(3s,6s,8S)-8-methyl-3-(pyrrolidin-1-ylmethyl)-1,5-dioxa-9-azaspiro[5.5]undec-an-9-yl]pentan-2-yl]-3-(2-methylpropyl)piper-azin-2-one (^≠), isomer Z] | 428.0 ± 52.5 | 36.0 | 186.9 ± 17.3 | 15.7 | 2 |  | n.s. | p < 0.0001 | p < 0.0001 | 3 | 2 | 3 | 763.4 ± 84.5 | 64.2 | p < 0.0001 | p < 0.0001 | 4 | 2 | 3
